Data from patent US10603384B2, “Pharmaceutical composition containing an antivirally active dihydroquinazoline derivative” (AICURIS GMBH & CO. KG, priority 2012, dated 2020).

System: HCMV AD 169 RV-HG
Assay: HCMV fluorescence-reduction test (GFP-RA)
Type: cell-based, human cytomegalovirus
Conditions: Human betaherpesvirus 5, AD169, NHDF, 168 h, read-out: EC50 (GFP-RA)
Text: The in vitro effects of the compositions according to the present invention on the replication of the HCMV (human cytomegalovirus) can be seen in the following antiviral assay:
The solution from Example 8 is used without further dilution in the test. The composition from Example 6A is used as a 50-millimolar (mM) solution in dimethyl sulphoxide (DMSO). Ganciclovir®, Foscarnet® or Cidofovir® can be used as reference compositions. One day before the beginning of the test, 1.5×10^4 human foreskin fibroblasts (NHDF cells)/well are seeded in 200 μl of cell culture medium in Wells B2-G11 of 96-well plates (black with transparent floor). The wells along the edges of each 96-well plate are filled with 200 μl of medium only in order to prevent edge effects. […] The virus used is a recombinant HCMV which has integrated an expression cassette for green fluorescence protein (GFP) in the virus genome (HCMV AD 169 RV-HG [E. M. Borst, K. Wagner, A. Binz, B. Sodeik, and M. Messerle, 2008, J. Virol. 82:2065-2078.]). […] The GFP intensity of each well in a 96-well plate is then determined using a fluorescence scanner (FluoBox; Bayer Technology Services GmbH; filter settings: GFP, Ex 480 nm, Em 520 nm). The measured values thus obtained can be used to determine the EC50 of an anti-HCMV: […]

**Q.** `Nc1nc(O)c2ncn(COC(CO)CO)c2n1` [Ganciclovir] was tested. Which EC50 did it give?
**A.** 2500 ± 400 nM

**Q.** For `COc1cccc(N2CCN(C3=Nc4c(F)cccc4[C@H](CC(=O)O)N3c3cc(C(F)(F)F)ccc3OC)CC2)c1` [Example 6A, (S)-{8-fluoro-2-[4-(3-methoxyphenyl)piperazine-1-yl]-3-(2-methoxy-5-trifluoromethylphenyl)-3,4-dihydroquinazoline-4-yl}acetic acid], which EC50 is on record?
**A.** 2.2 ± 0.2 nM
